These results are taken from patent publication US11608335B2, “Somatostatin modulators and uses thereof” (CRINETICS PHARMACEUTICALS, INC., priority 2018, dated 2023).

Like-named read-outs stand apart in the source and are kept apart here.

Experiment [1] concerns the target T1, human somatostatin receptor subtype 2 (Homo sapiens, UniProt P30874).
T1 construct: expressed in transfected cells
In words: cAMP assay for SST2R (inhibition of cAMP via human SST2 receptor). It counts as cell-based. To be noted: Table B, read-out: SST2 potency. The text has this:
cAMP Assay Protocol for SST2R:
(Cyclic AMP is a second messenger, typically raised through Gs and lowered through Gi signalling.)

The target of experiment [2] is human somatostatin receptor subtype 5 (Homo sapiens, UniProt P35346). In words: cAMP assay for SST5R (inhibition of cAMP via human SST5 receptor).
human somatostatin receptor subtype 5, sequence (P35346 whole entry): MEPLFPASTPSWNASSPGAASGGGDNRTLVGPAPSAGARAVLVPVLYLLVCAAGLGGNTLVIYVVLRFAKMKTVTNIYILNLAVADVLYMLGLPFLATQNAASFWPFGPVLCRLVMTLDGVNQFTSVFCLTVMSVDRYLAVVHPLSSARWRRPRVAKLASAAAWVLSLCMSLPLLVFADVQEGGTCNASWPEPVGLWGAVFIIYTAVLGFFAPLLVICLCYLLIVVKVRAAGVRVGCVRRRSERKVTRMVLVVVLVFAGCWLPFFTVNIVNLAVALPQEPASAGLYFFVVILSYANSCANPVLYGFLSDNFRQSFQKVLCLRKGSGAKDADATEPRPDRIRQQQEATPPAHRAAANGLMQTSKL
Description: cAMP Assay Protocol for SST5R:
The cells are cultured at 37° C., 5% CO2 and 95% humidity. […] The cells are incubated for 20 minutes at 37° C. […] The cells are treated with 50 μL of lysis buffer (HRTF cAMP kit, Cisbio) for 30 minutes and then the lysate is diluted to 250 μL with assay buffer. The lysate is transferred to 384-well plates and cAMP detection and visualization antibodies are added and incubated for 1-24 hours at room temperature. The time-resolved fluorescent signal is read with a Tecan M1000Pro multiplate reader. The intracellular cAMP concentrations are calculated by regression to a standard curve and are plotted vs. the concentration of the compounds of the invention and the EC50 of the compounds are calculated using standard methods. All data manipulations are in GraphPad Prism v6 or v7.
Setting [3] is: SST5 over SST2, given as number (comparison compounds).
[4] abbreviates: read-out: SST5 potency, inhibition of cAMP via human SST5 receptor, Table B.

T1 sequence (P30874 whole entry): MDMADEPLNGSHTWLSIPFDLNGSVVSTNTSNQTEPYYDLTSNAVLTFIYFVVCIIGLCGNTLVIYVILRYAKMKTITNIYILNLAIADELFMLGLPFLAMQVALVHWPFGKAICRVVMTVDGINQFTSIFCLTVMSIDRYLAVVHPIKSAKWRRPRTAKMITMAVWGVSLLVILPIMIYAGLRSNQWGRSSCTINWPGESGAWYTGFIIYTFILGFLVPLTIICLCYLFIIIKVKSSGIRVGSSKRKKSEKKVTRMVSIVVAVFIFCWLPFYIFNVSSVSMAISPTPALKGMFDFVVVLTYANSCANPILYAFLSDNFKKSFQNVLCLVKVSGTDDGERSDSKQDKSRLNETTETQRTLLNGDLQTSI

For the molecule `Cc1ccnc2nc(-c3cncc(-c4cccc(Cl)c4)c3N3CCC(N)CC3)[nH]c12`, the EC50 in experiment [1] is 0.01 to 0.1 µM; in experiment [2] it was above 1 µM. Moreover, in experiment [2] (setting [3]), the “Fold selectivity for SST5 vs SST2” value stood at 0.009.
For `Cc1cccc(-c2cncc(-c3nc4c(C)cccc4[nH]3)c2N2CCC(N)CC2)c1`, the EC50 in experiment [1] is below 0.01 µM; in experiment [2] it was above 1 µM. In addition, the “Fold selectivity for SST5 vs SST2” value in experiment [2] (setting [3]) was determined as 0.002.
On to `Cc1cc(F)cc(-c2cncc(-c3nc4cccc(Cl)c4[nH]3)c2N2CCC(N)CC2)c1`, for which the EC50 in experiment [1] was below 0.01 µM; in experiment [2], 0.1 to 1 µM. Further, the “Fold selectivity for SST5 vs SST2” value in experiment [2] (setting [3]) came to 0.0008.
As for `Cc1cc(F)cc(-c2cncc(-c3nc4c(F)cc(F)cc4[nH]3)c2N2CC[C@H](N)C2)c1` (stereo in doubt) [Compound 2-194, 1-[3-(4,6-difluoro-1H-1,3-benzodiazol-2-yl)-5-(3-fluoro-5-methylphenyl)pyridin-4-yl]pyrrolidin-3-amine], in experiment [1], the EC50 is 0.1 to 1 µM.
With `Cc1cc(F)cc(-c2cncc(-c3nc4cc(F)ccc4[nH]3)c2N2CC(CN)C2)c1` [Compound 1-1, 1-{1-[3-(5-fluoro-1H-1,3-benzodiazol-2-yl)-5-(3-fluoro-5-methylphenyl)pyridin-4-yl]azetidin-3-yl}methanamine], the EC50 in experiment [1] was above 1 µM.
For the molecule `Cc1cc(F)cc(-c2cncc(-c3nc4c(F)cccc4[nH]3)c2N2CC(CN)C2)c1` [Compound 1-2, 1-{1-[3-(4-fluoro-1H-1,3-benzodiazol-2-yl)-5-(3-fluoro-5-methylphenyl)pyridin-4-yl]azetidin-3-yl}methanamine], the EC50 in experiment [1] is above 1 µM.
For `Cc1cc(F)cc(-c2cncc(-c3nc4cccc(Cl)c4[nH]3)c2N2CC(CN)C2)c1` [Compound 1-3, 1-{1-[3-(4-chloro-1H-1,3-benzodiazol-2-yl)-5-(3-fluoro-5-methylphenyl)pyridin-4-yl]azetidin-3-yl}methanamine], the EC50 is 0.1 to 1 µM in experiment [1], below 0.01 µM in experiment [2] and below 0.01 µM in experiment [2] (setting [4]). In experiment [2] (SST5 over SST2, class symbols), the “Fold selectivity for SST5 vs SST2” value is listed as “++ (++=100 to 499)”.
Regarding `Cc1cc(F)cc(-c2cncc(-c3nc4cc(Cl)ccc4[nH]3)c2N2CC(CN)C2)c1` [Compound 1-4, 1-{1-[3-(5-chloro-1H-1,3-benzodiazol-2-yl)-5-(3-fluoro-5-methylphenyl)pyridin-4-yl]azetidin-3-yl}methanamine], the EC50 in experiment [1] is above 1 µM; in experiment [2], 0.01 to 0.1 µM; in experiment [2] (setting [4]) it was 0.01 to 0.1 µM. For the same molecule, in experiment [2] (SST5 over SST2, class symbols), the “Fold selectivity for SST5 vs SST2” value is reported as “++ (++=100 to 499)”.
Turning to `Cc1cc(F)cc(-c2cncc(-c3nc4cccc(C#N)c4[nH]3)c2N2CC(CN)C2)c1` [Compound 1-5, 2-{4-[3-(aminomethyl)azetidin-1-yl]-5-(3-fluoro-5-methylphenyl)pyridin-3-yl}-1H-1,3-benzodiazole-4-carbonitrile], the EC50 is above 1 µM in experiment [1], 0.01 to 0.1 µM in experiment [2] and 0.01 to 0.1 µM in experiment [2] (setting [4]). The “Fold selectivity for SST5 vs SST2” value in experiment [2] (SST5 over SST2, class symbols) is “+++ (+++=≥500)”.
On to `Cc1cc(F)cc(-c2cncc(-c3nc4c(F)c(F)ccc4[nH]3)c2N2CC(CN)C2)c1` [Compound 1-6, 1-{1-[3-(4,5-difluoro-1H-1,3-benzodiazol-2-yl)-5-(3-fluoro-5-methylphenyl)pyridin-4-yl]azetidin-3-yl}methanamine], for which, in experiment [1], the EC50 is above 1 µM.
With `Cc1cc(F)cc(-c2cncc(-c3nc4c(F)cc(F)cc4[nH]3)c2N2CC(CN)C2)c1` [Compound 1-7, 1-{1-[3-(4,6-difluoro-1H-1,3-benzodiazol-2-yl)-5-(3-fluoro-5-methylphenyl)pyridin-4-yl]azetidin-3-yl}methanamine], the EC50 in experiment [1] is above 1 µM; in experiment [2], below 0.01 µM; in experiment [2] (setting [4]) it was below 0.01 µM. In addition, in experiment [2] (SST5 over SST2, class symbols), the “Fold selectivity for SST5 vs SST2” value was “+++ (+++=≥500)”.
On to `Cc1cc(F)cc(-c2cncc(-c3nc4cccc(C)c4[nH]3)c2N2CC(CN)C2)c1` [Compound 1-9, 1-{1-[3-(3-fluoro-5-methylphenyl)-5-(4-methyl-1H-1,3-benzodiazol-2-yl)pyridin-4-yl]azetidin-3-yl}methanamine], for which the EC50 in experiment [1] was above 1 µM; in experiment [2], below 0.01 µM; in experiment [2] (setting [4]) it was below 0.01 µM. Further, the “Fold selectivity for SST5 vs SST2” value in experiment [2] (SST5 over SST2, class symbols) is “+++ (+++=≥500)”.
For the molecule `Cc1cc(F)cc(-c2cncc(-c3nc4cc(C)ccc4[nH]3)c2N2CC(CN)C2)c1` [Compound 1-10, 1-{1-[3-(3-fluoro-5-methylphenyl)-5-(5-methyl-1H-1,3-benzodiazol-2-yl)pyridin-4-yl]azetidin-3-yl}methanamine], the EC50 in experiment [1] is above 1 µM; in experiment [2] it was below 0.01 µM; in experiment [2] (setting [4]), below 0.01 µM. In addition, the “Fold selectivity for SST5 vs SST2” value in experiment [2] (SST5 over SST2, class symbols) is listed as “+++ (+++=≥500)”.
As for `Cc1cc(F)cc(-c2cncc(-c3nc4c(F)ccc(F)c4[nH]3)c2N2CC(CN)C2)c1` [Compound 1-37, 1-{1-[3-(4,7-difluoro-1H-1,3-benzodiazol-2-yl)-5-(3-fluoro-5-methylphenyl)pyridin-4-yl]azetidin-3-yl}methanamine], the EC50 in experiment [1] was above 1 µM; in experiment [2] it was below 0.01 µM; in experiment [2] (setting [4]), below 0.01 µM. The “Fold selectivity for SST5 vs SST2” value in experiment [2] (SST5 over SST2, class symbols) was “+++ (+++=≥500)”.
As for `NCC1CN(c2c(-c3cc(F)cc(Cl)c3)cncc2-c2nc3cc(F)cc(F)c3[nH]2)C1` [Compound 1-39, 1-{1-[3-(3-chloro-5-fluorophenyl)-5-(4,6-difluoro-1H-1,3-benzodiazol-2-yl)pyridin-4-yl]azetidin-3-yl}methanamine], the EC50 was above 1 µM in experiment [1], below 0.01 µM in experiment [2] and below 0.01 µM in experiment [2] (setting [4]). Moreover, in experiment [2] (SST5 over SST2, class symbols), the “Fold selectivity for SST5 vs SST2” value is “+++ (+++=≥500)”.
In the case of `Cc1cc(F)cc(-c2cncc(-c3nc4c(F)cc(F)cc4[nH]3)c2N2CC(C(C)N)C2)c1` (stereo not drawn) [Compound 1-42, 1-{1-[3-(4,6-difluoro-1H-1,3-benzodiazol-2-yl)-5-(3-fluoro-5-methylphenyl)pyridin-4-yl]azetidin-3-yl}ethan-1-amine], the EC50 in experiment [1] is 0.1 to 1 µM.
Take `CC(N)C1CN(c2c(-c3cc(F)cc(C#N)c3)cncc2-c2nc3c(F)cc(F)cc3[nH]2)C1` (stereo not drawn) [Compound 1-64, 3-{4-[3-(1-aminoethyl)azetidin-1-yl]-5-(4,6-difluoro-1H-1,3-benzodiazol-2-yl)pyridin-3-yl}-5-fluorobenzonitrile]: the EC50 in experiment [1] was above 1 µM.
Turning to `CC(N)C1(C)CN(c2c(-c3cccc(F)c3)cncc2-c2nc3cc(F)cc(F)c3[nH]2)C1` (stereo not drawn) [Compound 1-68, 1-{1-[3-(4,6-difluoro-1H-1,3-benzodiazol-2-yl)-5-(3-fluorophenyl)pyridin-4-yl]-3-methylazetidin-3-yl}ethan-1-amine], the EC50 in experiment [1] is above 1 µM; in experiment [2], below 0.01 µM; in experiment [2] (setting [4]), below 0.01 µM. In addition, the “Fold selectivity for SST5 vs SST2” value in experiment [2] (SST5 over SST2, class symbols) is reported as “+++ (+++=≥500)”.
As to `CC(N)C1(C)CN(c2c(-c3cccc(C(F)(F)F)c3)cncc2-c2nc3cc(F)cc(F)c3[nH]2)C1` (stereo not drawn) [Compound 1-69, 1-{1-[3-(4,6-difluoro-1H-1,3-benzodiazol-2-yl)-5-[3-(trifluoromethyl)phenyl]pyridin-4-yl]-3-methylazetidin-3-yl}ethan-1-amine], the EC50 was above 1 µM in experiment [1], below 0.01 µM in experiment [2] and below 0.01 µM in experiment [2] (setting [4]). In addition, the “Fold selectivity for SST5 vs SST2” value in experiment [2] (SST5 over SST2, class symbols) is recorded as “+++ (+++=≥500)”.
Take `CC(N)C1(C)CN(c2c(-c3cccc(C#N)c3)cncc2-c2nc3cc(F)cc(F)c3[nH]2)C1` (stereo not drawn) [Compound 1-70, 3-{4-[3-(1-aminoethyl)-3-methylazetidin-1-yl]-5-(4,6-difluoro-1H-1,3-benzodiazol-2-yl)pyridin-3-yl}benzonitrile]: the EC50 in experiment [1] was above 1 µM; in experiment [2], below 0.01 µM; in experiment [2] (setting [4]), below 0.01 µM. Besides, the “Fold selectivity for SST5 vs SST2” value in experiment [2] (SST5 over SST2, class symbols) was “+++ (+++=≥500)”.
Regarding `Cc1cc(F)cc(-c2cncc(-c3nc4cc(F)cc(F)c4[nH]3)c2N2CCC(N)C2)c1` (stereo not drawn) [Compound 2-1, 1-[3-(4,6-difluoro-1H-1,3-benzodiazol-2-yl)-5-(3-fluoro-5-methylphenyl)pyridin-4-yl]pyrrolidin-3-amine], the EC50 in experiment [1] lay in the range of 0.1 to 1 µM.
For `N[C@H]1CCN(c2c(-c3cc(F)cc(Cl)c3)cncc2-c2nc3c(F)cccc3[nH]2)C1` [Compound 2-3, (3 S)-1-[3-(3-chloro-5-fluorophenyl)-5-(4-fluoro-1H-1,3-benzodiazol-2-yl)pyridin-4-yl]pyrrolidin-3-amine], the EC50 in experiment [1] is 0.1 to 1 µM.
`N#Cc1cc(F)cc(-c2cncc(-c3nc4c(F)cccc4[nH]3)c2N2CC[C@H](N)C2)c1` [Compound 2-8, 3-{4-[(3S)-3-aminopyrrolidin-1-yl]-5-(4-fluoro-1H-1,3-benzodiazol-2-yl)pyridin-3-yl}-5-fluorobenzonitrile]: in experiment [1], the EC50 was above 1 µM.
For the molecule `N#Cc1cc(-c2cncc(-c3nc4c(Cl)cccc4[nH]3)c2N2CC[C@H](N)C2)ccc1F` [Compound 2-51, 5-{4-[(3S)-3-aminopyrrolidin-1-yl]-5-(4-chloro-1H-1,3-benzodiazol-2-yl)pyridin-3-yl}-2-fluorobenzonitrile], the EC50 in experiment [1] fell in the range of 0.1 to 1 µM.
Molecule `C[C@]1(N)CCN(c2c(-c3ccc(F)c(C#N)c3)cncc2-c2nc3c(C#N)ccnc3[nH]2)C1` [Compound 2-176, 2-{4-[(3S)-3-amino-3-methylpyrrolidin-1-yl]-5-(3-cyano-4-fluorophenyl)pyridin-3-yl}-1H-imidazo[4,5-b]pyridine-7-carbonitrile] registered an EC50 in experiment [2] below 0.01 µM.
As to `COc1ccc(-c2cncc(-c3nc4c(C#N)ccnc4[nH]3)c2N2CC[C@](C)(N)C2)cc1C#N` [Compound 2-179, 2-{4-[(3S)-3-mino-3-methylpyrrolidin-1-yl]-5-(3-cyano-4-methoxyphenyl)pyridin-3-yl}-1H-imidazo[4,5-b]pyridine-7-carbonitrile], the EC50 in experiment [2] lay in the range of 0.01 to 0.1 µM.
Turning to `Cc1cc(F)cc(-c2cncc(-c3nc4c(F)cccc4[nH]3)c2N2CC[C@H](N)C2)c1` [Compound 2-193, (3S)-1-[3-(4-fluoro-1H-1,3-benzodiazol-2-yl)-5-(3-fluoro-5-methylphenyl)pyridin-4-yl]pyrrolidin-3-amine], the EC50 in experiment [1] was in the range of 0.1 to 1 µM.
